Data reported in PMC8429728, “TNK1 is a ubiquitin-binding and 14-3-3-regulated kinase that can be targeted to block tumor growth” (Nature Communications, 2021).
Where two headings read alike, the source gives them in different places.

Experiments:
Test in all cases: biochemical
Design in all cases: Reaction Biology 371-kinase panel at Km ATP, per cent enzyme activity relative to DMSO, single dose in duplicate
ACK1 = target: T1, ACK1 (Homo sapiens, UniProt Q07912); details: duplicate measurements, Km ATP
T1 construct: gene TNK2
Protocol: (§1) To assess kinase selectivity, we screened TP-5801 (300 nM) against a panel of 371 kinases in vitro. […] In addition to TNK1, only 7 other kinases were inhibited by more than 90% (Supplementary Fig. 8 and Supplementary Data 2). […] The resulting % Enzyme activity (relative to DMSO controls) were plotted in GraphPad and IC50 values were determined by sigmoidal dose-response (variable slope) curve fits, with a bottom constraint of 0.

ALK2/ACVR1 = ALK2/ACVR1 (Homo sapiens, UniProt Q04771); details: duplicate measurements, Km ATP; read-out: % Enzyme Activity (relative to DMSO controls) / TP-0005801 (0.3µM) / Data 1
Protocol: as §1

CAMK1b = target: T2, CAMK1b (Homo sapiens, UniProt Q6P2M8); details: duplicate measurements, Km ATP
T2 construct: gene PNCK
T2 sequence (Q6P2M8 whole entry): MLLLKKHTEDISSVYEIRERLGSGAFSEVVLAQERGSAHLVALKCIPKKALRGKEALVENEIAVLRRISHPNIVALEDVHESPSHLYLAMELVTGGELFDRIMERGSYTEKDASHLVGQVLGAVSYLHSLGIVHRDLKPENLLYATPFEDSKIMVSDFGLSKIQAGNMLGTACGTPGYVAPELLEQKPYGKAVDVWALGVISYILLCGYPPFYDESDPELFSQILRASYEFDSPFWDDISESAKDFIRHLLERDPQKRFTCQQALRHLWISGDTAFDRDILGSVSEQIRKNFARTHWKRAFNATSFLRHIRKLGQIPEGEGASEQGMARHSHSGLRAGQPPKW
Protocol: as §1

CDK8/cyclin C = CDK8/cyclin C (Homo sapiens, UniProt P49336); details: duplicate measurements, Km ATP
Protocol: as §1

DYRK1/DYRK1A = DYRK1/DYRK1A (Homo sapiens, UniProt Q13627); details: duplicate measurements, Km ATP
Protocol: as §1

DYRK1B = DYRK1B (Homo sapiens, UniProt Q9Y463); details: duplicate measurements, Km ATP
DYRK1B, sequence (Q9Y463 whole entry): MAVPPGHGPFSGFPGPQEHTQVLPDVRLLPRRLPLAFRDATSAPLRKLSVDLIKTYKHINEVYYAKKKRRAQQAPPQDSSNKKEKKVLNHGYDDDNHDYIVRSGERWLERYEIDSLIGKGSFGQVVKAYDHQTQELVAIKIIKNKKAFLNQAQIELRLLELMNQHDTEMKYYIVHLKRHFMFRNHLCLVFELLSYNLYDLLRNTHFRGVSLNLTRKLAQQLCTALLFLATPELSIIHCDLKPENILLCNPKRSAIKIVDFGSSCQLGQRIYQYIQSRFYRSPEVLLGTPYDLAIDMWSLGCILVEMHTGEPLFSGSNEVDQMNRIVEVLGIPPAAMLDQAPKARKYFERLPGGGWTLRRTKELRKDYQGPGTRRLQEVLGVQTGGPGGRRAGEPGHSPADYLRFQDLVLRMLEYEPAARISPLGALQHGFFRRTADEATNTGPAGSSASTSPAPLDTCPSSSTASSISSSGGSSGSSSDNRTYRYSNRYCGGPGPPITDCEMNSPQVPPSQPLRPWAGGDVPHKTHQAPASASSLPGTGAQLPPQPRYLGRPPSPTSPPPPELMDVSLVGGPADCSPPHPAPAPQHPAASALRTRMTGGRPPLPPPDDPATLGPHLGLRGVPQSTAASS
Protocol: as §1

EPHB2 = EPHB2 (Homo sapiens, UniProt P29323); details: duplicate measurements, Km ATP
Protocol: as §1

FAK/PTK2 = FAK/PTK2 (Homo sapiens, UniProt Q05397); details: duplicate measurements, Km ATP
FAK/PTK2, sequence (Q05397 whole entry): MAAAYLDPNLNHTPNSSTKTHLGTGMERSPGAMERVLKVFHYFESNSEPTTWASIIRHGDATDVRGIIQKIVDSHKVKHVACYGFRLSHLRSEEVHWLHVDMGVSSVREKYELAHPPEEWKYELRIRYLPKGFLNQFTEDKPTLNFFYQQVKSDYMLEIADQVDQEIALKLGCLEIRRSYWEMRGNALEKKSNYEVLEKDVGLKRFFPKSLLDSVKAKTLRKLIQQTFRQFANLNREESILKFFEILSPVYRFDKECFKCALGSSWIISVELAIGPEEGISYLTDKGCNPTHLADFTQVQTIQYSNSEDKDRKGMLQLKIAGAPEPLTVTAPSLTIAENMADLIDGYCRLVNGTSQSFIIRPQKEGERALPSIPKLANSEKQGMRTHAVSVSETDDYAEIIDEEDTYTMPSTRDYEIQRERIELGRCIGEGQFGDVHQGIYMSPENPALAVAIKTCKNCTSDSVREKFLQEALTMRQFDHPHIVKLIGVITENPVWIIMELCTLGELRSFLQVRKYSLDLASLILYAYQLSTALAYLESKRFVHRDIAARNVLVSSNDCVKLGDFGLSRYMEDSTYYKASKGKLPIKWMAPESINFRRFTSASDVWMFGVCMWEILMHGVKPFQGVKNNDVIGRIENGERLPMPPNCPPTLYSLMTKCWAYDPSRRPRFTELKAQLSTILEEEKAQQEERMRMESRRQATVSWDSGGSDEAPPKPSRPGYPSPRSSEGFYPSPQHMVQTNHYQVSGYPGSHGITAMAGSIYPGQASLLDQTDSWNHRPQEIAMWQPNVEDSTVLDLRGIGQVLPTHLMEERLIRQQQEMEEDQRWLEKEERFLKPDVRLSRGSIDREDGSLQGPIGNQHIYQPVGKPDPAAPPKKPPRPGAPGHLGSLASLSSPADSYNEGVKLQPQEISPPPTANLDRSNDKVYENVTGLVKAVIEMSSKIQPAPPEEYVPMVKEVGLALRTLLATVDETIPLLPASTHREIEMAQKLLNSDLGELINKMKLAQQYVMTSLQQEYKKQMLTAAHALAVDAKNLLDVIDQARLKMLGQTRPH
Protocol: as §1

GRK4 = GRK4 (Homo sapiens, UniProt P32298); details: duplicate measurements, Km ATP
GRK4, sequence (P32298 whole entry): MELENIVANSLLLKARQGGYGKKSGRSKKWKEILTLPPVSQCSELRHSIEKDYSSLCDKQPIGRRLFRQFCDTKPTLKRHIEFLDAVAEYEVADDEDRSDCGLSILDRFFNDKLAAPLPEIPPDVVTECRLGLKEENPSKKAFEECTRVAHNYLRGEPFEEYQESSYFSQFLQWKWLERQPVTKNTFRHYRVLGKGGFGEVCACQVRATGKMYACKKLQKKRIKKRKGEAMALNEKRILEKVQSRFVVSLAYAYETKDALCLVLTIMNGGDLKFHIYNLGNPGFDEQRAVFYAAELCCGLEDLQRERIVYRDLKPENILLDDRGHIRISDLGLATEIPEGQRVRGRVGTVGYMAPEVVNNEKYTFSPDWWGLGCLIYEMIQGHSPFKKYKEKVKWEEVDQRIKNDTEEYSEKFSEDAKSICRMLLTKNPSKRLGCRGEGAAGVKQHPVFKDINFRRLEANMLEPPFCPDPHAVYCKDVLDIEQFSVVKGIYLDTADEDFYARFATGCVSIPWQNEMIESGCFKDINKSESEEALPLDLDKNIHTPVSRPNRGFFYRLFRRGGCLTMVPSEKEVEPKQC
Protocol: as §1

MAK = MAK (Homo sapiens, UniProt P20794); details: duplicate measurements, Km ATP
Protocol: as §1

MELK = MELK (Homo sapiens, UniProt Q14680); details: duplicate measurements, Km ATP
MELK, sequence (Q14680 whole entry): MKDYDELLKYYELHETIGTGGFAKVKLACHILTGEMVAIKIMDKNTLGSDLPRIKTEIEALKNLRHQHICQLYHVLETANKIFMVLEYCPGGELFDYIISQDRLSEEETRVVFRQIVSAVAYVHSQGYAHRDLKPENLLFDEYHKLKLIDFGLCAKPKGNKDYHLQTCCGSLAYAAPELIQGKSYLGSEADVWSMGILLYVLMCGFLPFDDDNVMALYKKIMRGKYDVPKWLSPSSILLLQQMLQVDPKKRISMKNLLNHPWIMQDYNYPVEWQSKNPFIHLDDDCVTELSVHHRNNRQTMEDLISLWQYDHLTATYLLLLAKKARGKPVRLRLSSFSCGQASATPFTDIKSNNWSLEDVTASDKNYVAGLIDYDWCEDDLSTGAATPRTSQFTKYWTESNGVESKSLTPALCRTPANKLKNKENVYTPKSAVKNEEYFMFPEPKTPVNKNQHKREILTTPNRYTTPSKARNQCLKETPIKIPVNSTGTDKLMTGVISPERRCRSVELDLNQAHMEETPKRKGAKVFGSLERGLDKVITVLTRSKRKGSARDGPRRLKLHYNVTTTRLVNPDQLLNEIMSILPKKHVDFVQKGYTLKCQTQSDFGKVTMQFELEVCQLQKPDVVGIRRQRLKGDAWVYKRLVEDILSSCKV
Protocol: as §1

MNK1 = target: T3, MNK1 (Homo sapiens, UniProt Q9BUB5); details: duplicate measurements, Km ATP
T3 construct: gene MKNK1
Protocol: as §1

NEK11 = NEK11 (Homo sapiens, UniProt Q8NG66); details: duplicate measurements, Km ATP
Protocol: as §1

PDK1/PDPK1 = PDK1/PDPK1 (Homo sapiens, UniProt O15530); details: duplicate measurements, Km ATP
Protocol: as §1

PKMYT1 = target: T4, PKMYT1 (Homo sapiens, UniProt Q99640); details: duplicate measurements, Km ATP
T4 sequence (Q99640 1-499): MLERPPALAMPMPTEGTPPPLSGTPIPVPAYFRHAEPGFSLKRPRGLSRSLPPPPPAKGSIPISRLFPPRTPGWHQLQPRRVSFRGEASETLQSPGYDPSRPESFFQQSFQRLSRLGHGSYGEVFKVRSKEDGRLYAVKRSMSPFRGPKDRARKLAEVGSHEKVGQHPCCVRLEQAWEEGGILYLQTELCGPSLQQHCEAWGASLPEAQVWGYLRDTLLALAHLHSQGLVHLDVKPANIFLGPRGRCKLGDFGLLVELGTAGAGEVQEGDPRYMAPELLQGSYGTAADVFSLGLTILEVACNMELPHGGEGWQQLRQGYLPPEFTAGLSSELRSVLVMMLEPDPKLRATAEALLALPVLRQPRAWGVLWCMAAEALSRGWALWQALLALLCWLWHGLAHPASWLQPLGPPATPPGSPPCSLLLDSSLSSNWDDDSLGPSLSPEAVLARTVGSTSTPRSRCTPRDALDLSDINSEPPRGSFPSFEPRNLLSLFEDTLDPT
Protocol: as §1

PKN1/PRK1 = PKN1/PRK1 (Homo sapiens, UniProt Q16512); details: duplicate measurements, Km ATP
Protocol: as §1

RON/MST1R = RON/MST1R (Homo sapiens, UniProt Q04912); details: duplicate measurements, Km ATP
RON/MST1R, sequence (Q04912 whole entry): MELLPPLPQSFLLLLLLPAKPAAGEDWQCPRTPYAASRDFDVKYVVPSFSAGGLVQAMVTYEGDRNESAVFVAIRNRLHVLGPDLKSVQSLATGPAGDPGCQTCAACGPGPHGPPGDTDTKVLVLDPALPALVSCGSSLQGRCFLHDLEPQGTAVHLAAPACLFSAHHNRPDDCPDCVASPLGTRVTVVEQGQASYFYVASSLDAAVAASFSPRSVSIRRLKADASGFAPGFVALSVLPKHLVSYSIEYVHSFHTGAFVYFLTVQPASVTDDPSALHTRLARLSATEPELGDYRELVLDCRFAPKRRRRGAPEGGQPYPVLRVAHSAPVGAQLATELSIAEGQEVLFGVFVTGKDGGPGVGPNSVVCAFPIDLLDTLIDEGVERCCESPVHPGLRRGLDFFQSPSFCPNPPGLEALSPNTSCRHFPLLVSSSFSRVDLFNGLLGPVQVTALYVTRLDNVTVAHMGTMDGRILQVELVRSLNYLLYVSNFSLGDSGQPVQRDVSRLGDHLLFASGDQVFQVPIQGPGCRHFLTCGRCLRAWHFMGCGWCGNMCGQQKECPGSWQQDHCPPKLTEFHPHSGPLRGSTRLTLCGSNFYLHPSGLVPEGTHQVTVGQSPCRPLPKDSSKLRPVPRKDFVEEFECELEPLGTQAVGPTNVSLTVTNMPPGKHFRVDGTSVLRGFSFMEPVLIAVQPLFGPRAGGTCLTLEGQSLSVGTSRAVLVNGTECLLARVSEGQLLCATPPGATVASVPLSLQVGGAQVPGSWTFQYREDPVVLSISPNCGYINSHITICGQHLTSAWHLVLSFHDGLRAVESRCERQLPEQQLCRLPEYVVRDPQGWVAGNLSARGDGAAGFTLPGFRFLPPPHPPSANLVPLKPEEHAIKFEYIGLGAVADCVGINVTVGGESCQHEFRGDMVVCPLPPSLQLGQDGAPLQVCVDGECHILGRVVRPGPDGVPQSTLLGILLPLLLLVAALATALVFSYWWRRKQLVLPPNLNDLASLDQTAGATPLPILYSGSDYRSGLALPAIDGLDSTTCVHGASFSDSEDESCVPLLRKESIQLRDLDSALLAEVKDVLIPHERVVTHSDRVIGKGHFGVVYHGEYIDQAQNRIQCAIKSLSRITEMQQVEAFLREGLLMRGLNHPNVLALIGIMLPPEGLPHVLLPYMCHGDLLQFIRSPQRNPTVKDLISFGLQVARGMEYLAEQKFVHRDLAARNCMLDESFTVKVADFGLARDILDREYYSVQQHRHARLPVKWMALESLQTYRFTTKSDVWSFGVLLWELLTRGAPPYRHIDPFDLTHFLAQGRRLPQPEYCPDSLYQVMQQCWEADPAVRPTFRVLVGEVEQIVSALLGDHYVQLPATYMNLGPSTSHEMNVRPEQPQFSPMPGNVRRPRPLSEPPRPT
Protocol: as §1

[1] = read-out: % Enzyme Activity (relative to DMSO controls) / TP-0005801 (0.3µM) / Data 1
[2] = read-out: % Enzyme Activity (relative to DMSO controls) / TP-0005801 (0.3µM) / Data 2

- remaining activity at 0.3 µM (ACK1; [1]): 1.69%
- remaining activity at 0.3 µM (ACK1; [2]): 1.45%
- remaining activity at 0.3 µM (ALK2/ACVR1): 90.6%
- remaining activity at 0.3 µM (CAMK1b; [1]): 119%
- remaining activity at 0.3 µM (CAMK1b; [2]): 114%
- remaining activity at 0.3 µM (CDK8/cyclin C; [1]): 31.9%
- remaining activity at 0.3 µM (CDK8/cyclin C; [2]): 31.6%
- remaining activity at 0.3 µM (DYRK1/DYRK1A; [1]): 86.5%
- remaining activity at 0.3 µM (DYRK1/DYRK1A; [2]): 85.9%
- remaining activity at 0.3 µM (DYRK1B; [1]): 77.1%
- remaining activity at 0.3 µM (DYRK1B; [2]): 75.8%
- remaining activity at 0.3 µM (EPHB2; [1]): 86.4%
- remaining activity at 0.3 µM (EPHB2; [2]): 85.6%
- remaining activity at 0.3 µM (FAK/PTK2; [1]): 12.3%
- remaining activity at 0.3 µM (FAK/PTK2; [2]): 11.4%
- remaining activity at 0.3 µM (GRK4; [1]): 109%
- remaining activity at 0.3 µM (GRK4; [2]): 108%
- remaining activity at 0.3 µM (MAK; [1]): 98.4%
- remaining activity at 0.3 µM (MAK; [2]): 94.1%
- remaining activity at 0.3 µM (MELK; [1]): 93.1%
- remaining activity at 0.3 µM (MELK; [2]): 90.3%
- remaining activity at 0.3 µM (MNK1; [1]): 92.5%
- remaining activity at 0.3 µM (MNK1; [2]): 90.8%
- remaining activity at 0.3 µM (NEK11; [1]): 99.3%
- remaining activity at 0.3 µM (NEK11; [2]): 94.5%
- remaining activity at 0.3 µM (PDK1/PDPK1; [1]): 89.9%
- remaining activity at 0.3 µM (PDK1/PDPK1; [2]): 89.6%
- remaining activity at 0.3 µM (PKMYT1; [1]): 62.9%
- remaining activity at 0.3 µM (PKMYT1; [2]): 62.8%
- remaining activity at 0.3 µM (PKN1/PRK1; [1]): 91.8%
- remaining activity at 0.3 µM (PKN1/PRK1; [2]): 90.3%
- remaining activity at 0.3 µM (RON/MST1R; [1]): 94%
- remaining activity at 0.3 µM (RON/MST1R; [2]): 92.4%
SMILES: COc1cc(N2CCN(C)CC2)c(C)cc1Nc1ncc(Br)c(Nc2cccnc2N(C)C)n1 [TP-5801]
